Activity calls are given as the source filed them.
Key:
Exodeoxyribonuclease V = molecular target: T1, Exodeoxyribonuclease V (Escherichia coli (strain K12), UniProt P04993+P07648+P08394); assay: RecBCD inhibition via phage-restricted bacterial growth – absorbance, V66 E. coli, mutant T4 phage, counter-screen for AddAB inhibitor project, dose response (AID 492957); type: functional, cell-based, Escherichia coli str. K-12 substr. MG1655
T1 sequence (P04993 whole entry): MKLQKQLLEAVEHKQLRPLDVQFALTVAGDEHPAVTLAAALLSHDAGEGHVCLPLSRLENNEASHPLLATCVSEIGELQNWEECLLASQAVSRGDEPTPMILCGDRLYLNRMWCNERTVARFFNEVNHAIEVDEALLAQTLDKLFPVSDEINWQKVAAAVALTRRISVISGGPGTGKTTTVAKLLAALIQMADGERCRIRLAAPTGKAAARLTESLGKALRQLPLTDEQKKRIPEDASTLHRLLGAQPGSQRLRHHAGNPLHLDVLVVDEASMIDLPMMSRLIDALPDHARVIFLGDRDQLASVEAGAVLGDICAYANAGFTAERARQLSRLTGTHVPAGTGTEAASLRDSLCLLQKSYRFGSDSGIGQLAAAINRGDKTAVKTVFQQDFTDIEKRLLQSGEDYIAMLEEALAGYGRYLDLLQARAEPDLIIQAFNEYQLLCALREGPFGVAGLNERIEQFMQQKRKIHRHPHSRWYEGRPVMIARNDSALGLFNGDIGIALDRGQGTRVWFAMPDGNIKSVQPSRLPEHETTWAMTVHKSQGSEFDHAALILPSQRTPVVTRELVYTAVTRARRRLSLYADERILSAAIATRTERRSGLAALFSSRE
T1 sequence (P07648 whole entry): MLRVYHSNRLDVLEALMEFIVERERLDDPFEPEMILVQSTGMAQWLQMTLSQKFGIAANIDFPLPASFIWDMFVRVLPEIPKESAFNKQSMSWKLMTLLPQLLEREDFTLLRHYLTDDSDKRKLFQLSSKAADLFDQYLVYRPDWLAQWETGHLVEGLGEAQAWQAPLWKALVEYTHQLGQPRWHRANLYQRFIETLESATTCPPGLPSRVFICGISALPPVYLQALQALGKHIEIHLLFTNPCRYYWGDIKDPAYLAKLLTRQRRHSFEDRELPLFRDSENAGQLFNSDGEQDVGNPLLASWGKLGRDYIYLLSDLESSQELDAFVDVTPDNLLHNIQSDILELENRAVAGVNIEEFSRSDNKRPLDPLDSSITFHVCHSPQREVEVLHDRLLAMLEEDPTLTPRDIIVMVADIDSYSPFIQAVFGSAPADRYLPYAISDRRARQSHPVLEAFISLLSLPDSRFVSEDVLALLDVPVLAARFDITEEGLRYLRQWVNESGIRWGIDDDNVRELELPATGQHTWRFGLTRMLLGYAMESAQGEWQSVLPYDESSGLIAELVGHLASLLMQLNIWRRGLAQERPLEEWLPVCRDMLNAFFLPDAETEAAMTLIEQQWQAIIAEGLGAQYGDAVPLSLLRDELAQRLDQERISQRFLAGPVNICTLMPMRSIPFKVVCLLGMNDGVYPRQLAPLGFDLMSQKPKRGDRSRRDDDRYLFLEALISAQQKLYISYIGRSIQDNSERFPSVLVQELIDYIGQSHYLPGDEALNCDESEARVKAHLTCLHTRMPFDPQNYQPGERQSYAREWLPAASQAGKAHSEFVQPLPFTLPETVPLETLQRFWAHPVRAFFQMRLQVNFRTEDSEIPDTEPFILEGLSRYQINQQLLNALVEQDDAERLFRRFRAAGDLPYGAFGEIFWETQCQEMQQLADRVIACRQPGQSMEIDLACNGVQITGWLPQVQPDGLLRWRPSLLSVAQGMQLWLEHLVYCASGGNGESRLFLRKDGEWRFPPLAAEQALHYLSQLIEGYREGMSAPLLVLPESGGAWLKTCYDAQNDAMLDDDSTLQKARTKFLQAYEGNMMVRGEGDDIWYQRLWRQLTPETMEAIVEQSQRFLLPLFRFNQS
T1 sequence (P08394 whole entry): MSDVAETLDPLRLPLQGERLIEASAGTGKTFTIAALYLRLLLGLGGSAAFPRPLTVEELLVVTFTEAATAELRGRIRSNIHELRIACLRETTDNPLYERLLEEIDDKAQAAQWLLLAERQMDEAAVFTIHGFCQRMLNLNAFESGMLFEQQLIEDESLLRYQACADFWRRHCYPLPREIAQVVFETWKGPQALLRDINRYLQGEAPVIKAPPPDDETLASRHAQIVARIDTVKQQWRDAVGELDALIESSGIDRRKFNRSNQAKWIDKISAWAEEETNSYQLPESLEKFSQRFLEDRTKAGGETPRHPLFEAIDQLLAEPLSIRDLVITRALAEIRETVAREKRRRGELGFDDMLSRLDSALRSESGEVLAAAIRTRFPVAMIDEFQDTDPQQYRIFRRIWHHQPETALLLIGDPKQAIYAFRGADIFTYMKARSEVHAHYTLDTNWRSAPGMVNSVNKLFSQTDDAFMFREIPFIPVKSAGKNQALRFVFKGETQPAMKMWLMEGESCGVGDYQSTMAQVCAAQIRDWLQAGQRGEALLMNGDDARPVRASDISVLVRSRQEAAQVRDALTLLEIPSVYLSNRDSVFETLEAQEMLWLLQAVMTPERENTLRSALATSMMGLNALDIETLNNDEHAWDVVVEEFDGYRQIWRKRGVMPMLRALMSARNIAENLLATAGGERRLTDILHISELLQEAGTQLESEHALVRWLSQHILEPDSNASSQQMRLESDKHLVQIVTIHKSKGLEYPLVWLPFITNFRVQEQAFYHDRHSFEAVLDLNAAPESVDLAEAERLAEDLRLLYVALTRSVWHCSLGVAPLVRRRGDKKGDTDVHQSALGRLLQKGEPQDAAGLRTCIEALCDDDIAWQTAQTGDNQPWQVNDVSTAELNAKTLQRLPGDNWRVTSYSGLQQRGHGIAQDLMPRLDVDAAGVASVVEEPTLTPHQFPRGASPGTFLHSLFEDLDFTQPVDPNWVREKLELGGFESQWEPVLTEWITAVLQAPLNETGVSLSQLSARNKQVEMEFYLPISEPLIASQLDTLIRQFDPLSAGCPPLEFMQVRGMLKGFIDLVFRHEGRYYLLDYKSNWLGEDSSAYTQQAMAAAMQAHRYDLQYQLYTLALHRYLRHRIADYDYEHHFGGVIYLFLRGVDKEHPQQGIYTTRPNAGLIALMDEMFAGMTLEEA

[1] = viability loss in HEK293 cells – cell-based, plate reader, cherry-picked samples, cytotoxicity control, dose response (AID 743446); type: functional

SMILES: Cc1ccc(C)c(S(=O)(=O)N2CCN(Cc3ccc(O)c4ncccc34)CC2)c1
- IC50 (Exodeoxyribonuclease V): > 119 µM (inactive)

SMILES: COc1cc(NC(=O)Cn2ncc(Cl)c(Cl)c2=O)c(C)cc1[N+](=O)[O-]
- AC50 [1]: 6.28 µM (active)

Source: ChEMBL document CHEMBL1201862, “PubChem BioAssay data set” (2004)
